Measured values reported in US5773239A, “Mannosidase inhibitors, process for their preparation and their use as therapeutic agents” (Mount Sinai Hospital Corporation., priority 1995, dated 1998).
pIC50: −log10 of the molar value. Read-outs that look alike come from different tables or passages of the source.

Assays:
MDAY-D2 tumor cells = assay: L-PHA toxicity assay (inhibition of oligosaccharide processing in cells); format: cell-based, mouse; conditions: for IC50 for inhibition of Golgi oligosaccharide processing, higher / activity as inhibitors of Golgi oligosaccharide processing in viable MDAY-D2 tumor cells: compared to SW; for pIC50: Mus musculus, read-out: IC50 for Inhibition of L-PHA Toxicity
Procedure: MDAY-D2 tumor cells were inoculated into 96 well micro-test plates at 2×10^4 cells/well, and containing serial dilutions of SW or SW analogues in MEM plus 10% FCS. The cells were cultured for 18-20 hr, followed by the addition of L-PHA at 25 μg/ml for an additional 24 hr. Cell proliferation was measured by adding 0.5 μCi/well of ^3 H-thymidine for 3-4 hr, harvesting onto glass fibre disks using a Titertek harvester and the disks were counted in a liquid scintillation counter. The apparent IC50 values for SW and the analogues are the drug concentrations showing 50% protection from L-PHA toxicity; that is 50% ^3 H-thymidine incorporated compared with cells grown in the absence of L-PHA. In experiments using the esterase inhibitor diethyl p-nitrophenyl phosphate, the compound was added to MDAY-D2 cells 4 hr prior to the α-mannosidase inhibitors and was present through-out the experiment.

Jack Bean α-mannosidase = target: T1, Jack Bean α-mannosidase (Canavalia ensiformis, UniProt C0HJB3); assay: Inhibition of Jack Bean α-mannosidase; format: biochemical
T1 construct: purchased Sigma
T1 sequence (C0HJB3 1-981): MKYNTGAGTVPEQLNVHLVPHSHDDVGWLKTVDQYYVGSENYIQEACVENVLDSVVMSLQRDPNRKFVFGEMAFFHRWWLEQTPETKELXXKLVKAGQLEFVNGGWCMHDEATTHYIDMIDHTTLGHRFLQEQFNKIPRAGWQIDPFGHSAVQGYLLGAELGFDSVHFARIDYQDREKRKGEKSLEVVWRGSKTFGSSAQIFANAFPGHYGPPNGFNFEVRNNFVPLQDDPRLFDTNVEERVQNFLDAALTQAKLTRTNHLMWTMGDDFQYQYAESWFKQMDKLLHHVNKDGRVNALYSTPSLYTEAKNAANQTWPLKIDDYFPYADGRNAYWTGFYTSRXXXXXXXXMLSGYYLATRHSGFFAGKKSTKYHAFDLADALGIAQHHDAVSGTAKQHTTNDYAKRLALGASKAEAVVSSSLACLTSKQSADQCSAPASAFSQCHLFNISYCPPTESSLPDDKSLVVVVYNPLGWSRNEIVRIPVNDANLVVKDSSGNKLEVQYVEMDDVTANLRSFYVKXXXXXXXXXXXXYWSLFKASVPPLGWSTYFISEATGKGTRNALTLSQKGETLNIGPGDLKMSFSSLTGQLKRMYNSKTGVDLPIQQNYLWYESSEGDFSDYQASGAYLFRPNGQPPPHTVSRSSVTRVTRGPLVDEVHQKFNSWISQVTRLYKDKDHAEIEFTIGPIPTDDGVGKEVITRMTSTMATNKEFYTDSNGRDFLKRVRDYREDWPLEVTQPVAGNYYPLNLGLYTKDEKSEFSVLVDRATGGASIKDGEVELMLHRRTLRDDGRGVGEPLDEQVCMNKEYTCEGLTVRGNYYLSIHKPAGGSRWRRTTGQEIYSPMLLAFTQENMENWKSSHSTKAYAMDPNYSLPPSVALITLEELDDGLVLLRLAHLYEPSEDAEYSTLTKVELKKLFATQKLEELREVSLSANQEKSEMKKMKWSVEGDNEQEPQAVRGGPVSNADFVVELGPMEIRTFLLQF
Procedure: Jack Bean α-mannosidase (Sigma, 38 U/ml) was diluted 1/800, 10 μl was added to each well and the plates were incubated for 20 min at 37° C. The reaction was stopped by the addition of 150 μl of 0.5M sodium carbonate and formation of p-nitrophenol was measured with a plate set at 405 nm.

[1] = target: T2, MDAY-D2 lysosomal α-mannosidases (Mus musculus, UniProt O09159); assay: Inhibition of lysosomal α-mannosidases in MDAY-D2 tumor cell lysate; format: biochemical
T2 construct: 10 μl MDAY-D2 tumor cell lysate; endogenous in cells; host or cells: MDAY-D2 tumor cells (lysate)
T2 sequence (O09159 50-1013): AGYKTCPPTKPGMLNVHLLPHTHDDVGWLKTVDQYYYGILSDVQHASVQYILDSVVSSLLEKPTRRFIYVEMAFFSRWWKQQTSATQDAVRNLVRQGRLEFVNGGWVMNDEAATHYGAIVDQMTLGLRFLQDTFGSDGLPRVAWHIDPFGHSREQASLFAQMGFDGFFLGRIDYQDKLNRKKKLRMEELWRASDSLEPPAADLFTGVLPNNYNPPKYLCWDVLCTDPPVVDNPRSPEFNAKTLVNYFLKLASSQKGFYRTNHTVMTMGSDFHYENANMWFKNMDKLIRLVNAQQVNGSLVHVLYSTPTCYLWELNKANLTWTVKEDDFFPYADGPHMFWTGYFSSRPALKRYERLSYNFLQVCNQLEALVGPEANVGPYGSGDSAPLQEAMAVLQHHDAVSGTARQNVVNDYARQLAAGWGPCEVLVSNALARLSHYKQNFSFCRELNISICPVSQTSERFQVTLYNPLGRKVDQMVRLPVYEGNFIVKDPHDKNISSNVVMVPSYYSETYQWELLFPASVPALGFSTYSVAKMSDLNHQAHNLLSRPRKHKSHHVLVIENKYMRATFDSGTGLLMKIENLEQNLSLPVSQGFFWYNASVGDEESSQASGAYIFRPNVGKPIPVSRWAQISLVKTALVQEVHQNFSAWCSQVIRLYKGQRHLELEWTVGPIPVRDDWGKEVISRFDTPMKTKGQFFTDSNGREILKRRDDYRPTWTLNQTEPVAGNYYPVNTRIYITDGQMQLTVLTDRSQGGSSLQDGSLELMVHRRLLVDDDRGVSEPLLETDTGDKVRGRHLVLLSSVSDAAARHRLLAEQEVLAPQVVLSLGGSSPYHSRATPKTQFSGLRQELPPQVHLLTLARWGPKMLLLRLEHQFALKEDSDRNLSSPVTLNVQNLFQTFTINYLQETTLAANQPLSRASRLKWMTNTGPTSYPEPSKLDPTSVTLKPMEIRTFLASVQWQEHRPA
Procedure: SW and analogues were serially diluted into a volume of 75 μl in 96 well Elisa plates followed by the addition of 37.5 μl of 100 mM sodium acetate pH 5.0 and 37.5 μl of 10 mM p-nitrophenyl α-D-mannospyranoside. Jack Bean α-mannosidase (Sigma, 38 U/ml) was diluted 1/800, 10 μl was added to each well and the plates were incubated for 20 min at 37° C. The reaction was stopped by the addition of 150 μl of 0.5M sodium carbonate and formation of p-nitrophenol was measured with a plate set at 405 nm. The effects of SW and analogues on cellular acid α-mannosidases (ie. lysosomal enzyme) were measured using the same assay where Jack Bean α-mannosidase was replaced by 10 μl MDAY-D2 tumor cell lysate (10 μg/μl of protein) prepared in 0.9% NaCl, 50 mM Tris pH 7.0, 0.5% Triton X-100 and 1.0 mM diethyl p-nitrophenyl phosphate.

[2] = MDAY-D2 tumor cells, L-PHA 25 μg/ml, 50% protection by 3H-thymidine incorporation
[3] = p-nitrophenyl α-D-mannopyranoside, pH 5.0, 20 min 37° C., read-out: IC50 for inhibition of J.B. α-mannosidase
[4] = MDAY-D2 tumor cell lysate, pH 5.0, read-out: IC50 for inhibition of MDAY-D2 α-mannosidase

## O=C(OC1CN2CCCC(O)C2C1O)c1ccccc1 (stereo not shown) [2-benzoyloxy-SW]
MDAY-D2 tumor cells; MDAY-D2 tumor cells
  IC50 for inhibition of Golgi oligosaccharide processing, higher: at least 10 times
MDAY-D2 tumor cells; [2]
  pIC50: 5.74
Jack Bean α-mannosidase; [3]
  pIC50: 3.46
[1]; [4]
  pIC50: 3.14

## CCCC(=O)OC1CN2CCCC(O)C2C1O (stereo not shown) [2-butanoyloxy-SW]
MDAY-D2 tumor cells; [2]
  pIC50: 6.64
MDAY-D2 tumor cells
  activity as inhibitors of Golgi oligosaccharide processing in viable MDAY-D2 tumor cells: retained full activity
Jack Bean α-mannosidase
  pIC50: 3.91
Jack Bean α-mannosidase; compared to SW
  reduction of inhibitor activity / greater IC50 for α-mannosidase in vitro compared to SW: 300 fold
[1]; [4]
  pIC50: 4.46

## CCCCCCCC(=O)OC1CN2CCCC(O)C2C1O (stereo not shown) [2-octanoyloxy-SW]
MDAY-D2 tumor cells; [2]
  pIC50: 6.64
MDAY-D2 tumor cells
  activity as inhibitors of Golgi oligosaccharide processing in viable MDAY-D2 tumor cells: retained full activity
Jack Bean α-mannosidase; compared to SW
  reduction of inhibitor activity / greater IC50 for α-mannosidase in vitro compared to SW: 300 fold
Jack Bean α-mannosidase; [3]
  pIC50: 3.91
[1]; [4]
  pIC50: 4.46

## O=C(OC1CN2CCCC(O)C2C1O)c1ccc([N+](=O)[O-])cc1 (stereo not shown) [2-p-nitrobenzoyloxy-SW]
MDAY-D2 tumor cells; [2]
  pIC50: 6.64
MDAY-D2 tumor cells
  activity as inhibitors of Golgi oligosaccharide processing in viable MDAY-D2 tumor cells: retained full activity
Jack Bean α-mannosidase; compared to SW
  reduction of inhibitor activity / greater IC50 for α-mannosidase in vitro compared to SW: 300 fold
Jack Bean α-mannosidase; [3]
  pIC50: 3.91
[1]; [4]
  pIC50: 4.46

## Cc1ccc(C(=O)O[C@@H]2CN3CCC[C@@H](O)[C@@H]3[C@@H]2O)cc1 [2-toluoyloxy-SW]
MDAY-D2 tumor cells; MDAY-D2 tumor cells
  IC50 for inhibition of Golgi oligosaccharide processing, higher: at least 10 times
MDAY-D2 tumor cells; [2]
  pIC50: 5.47
Jack Bean α-mannosidase; [3]
  pIC50: 3.46
[1]; [4]
  pIC50: 4.16

## OC1CN2C[C@@H](O)[C@@H](O)[C@H]2[C@H](O)C1O (stereo partly shown) [6,7-dihydroxy-SW]
MDAY-D2 tumor cells; [2]
  pIC50: < 5.30
Jack Bean α-mannosidase; compared to SW
  less active than SW in the Jack Bean α-mannosidase assay: 100 times
Jack Bean α-mannosidase; [3]
  pIC50: 4.30
[1]; [4]
  pIC50: 5.00

## CCCCCCCCCCCCCC(=O)OC1CCCN2CC(O)C(O)C12 (stereo not shown) [8-myristinoyloxy-SW]
MDAY-D2 tumor cells; MDAY-D2 tumor cells
  IC50 for inhibition of Golgi oligosaccharide processing, higher: at least 10 times
MDAY-D2 tumor cells; [2]
  pIC50: < 5.60
Jack Bean α-mannosidase; [3]
  pIC50: < 3.30
[1]; [4]
  pIC50: < 3.30

## CCCCCCCCCCCCCCCC(=O)OC1CCCN2CC(O)C(O)C12 (stereo not shown) [8-palmitoyloxy-SW]
MDAY-D2 tumor cells; MDAY-D2 tumor cells
  IC50 for inhibition of Golgi oligosaccharide processing, higher: at least 10 times
MDAY-D2 tumor cells; [2]
  pIC50: < 5.60
Jack Bean α-mannosidase; [3]
  pIC50: 3.62
[1]; [4]
  pIC50: 3.30

## O[C@H]1[C@H]2[C@H](O)CCCN2C[C@H]1O [SW, Swainsonine, reference compound]
MDAY-D2 tumor cells; MDAY-D2, 3 h
  pIC50: 6.70
[1]
  pIC50: 6.30
